# From paper PMC5798851, “The structure of FIV reverse transcriptase and its implications for non-nucleoside inhibitor resistance” (PLoS Pathogens, 2018)
# Where two headings read alike, the source gives them in different places.
# Columns and labels:
# HIV-1 RT [1] = target: T1, HIV-1 RT (Human immunodeficiency virus type 1 group M subtype B, UniProt P03366); experiment: biochemical; type: binding
# T1 construct: HIV-1 RT construct, containing p66 and protease coding regions in pT5M plasmid; His-tag (implied by cobalt-resin purification); made in house; host or cells: E. coli BL21(DE3)
# mutated fRT (FIVm) = target: T2, mutated fRT (FIVm) (Feline immunodeficiency virus, UniProt P16088, A293E/G294T/K290I/R289S/R297I); experiment: DNA-dependent DNA polymerization activity assay, mutant FIV RT; type: biochemical, feline immunodeficiency virus (FIV); settings: 0.15 μM RT, 30 minutes at 37°C
# T2 construct: The p66 subunit (residues 1–554) was cloned into pET22b; p51 subunit (residues 1–430) in pET28b (kan resistance, Novagen) with a thrombin-cleavable His-tag at the N-terminus; His-tag (thrombin-cleavable) (N, cleaved yes); made in house; host or cells: E. coli ArcticExpress
# Procedure: (§1) DNA-dependent DNA polymerization activity of RT enzymes was assessed using a DNA primer/template prepared by annealing of 70-mer ssDNA template with a complementary 25-mer ssDNA primer labeled with 6-FAM at 5’-end (Integrated DNA Technologies).
# (§2) Reaction mixtures contained 100 mM Tris-HCl pH 7.5, 75 mM KCl, 0.5 mM dNTP mixture, 60 mM MgCl2, 5 mM DTT and 0.15 μM RT, 0.5 μM DNA substrate. Reactions were incubated for 30 minutes at 37°C and stopped using urea sample loading buffer and heating at 95°C for 10 minutes. Reaction products were resolved using denaturing urea polyacrylamide gel electrophoresis (S5B Fig). Percentage RT activities represent percentile of band-intensities of polymerized product divided by those of template/primer substrate.
# [2] = test system: mutant fRT (FIVm; R133S, K134I, A137E, G138T and R141I in FIV p51); experiment: Microscale thermophoresis (MST) NNRTI binding affinity to p51-loop mutant FIV RT; set-up: species or system feline immunodeficiency virus (FIV); settings: MST; for binding affinity to mutated fRT as compared to HIV-1 RT: FIVm versus HIV-1 RT
# Excerpt: (§3) The two subunits of FIV RT (Petaluma) were subcloned into separate plasmids to facilitate site-specific mutagenesis. […] FIV RT mutant (FIVm) was generated by introducing the specific mutations into the p51 subunit using QuikChange Kit (Agilent Technologies Genomics). HIV-1 RT construct, containing p66 and protease coding regions in pT5M plasmid, was a generous gift of Prof. Stephen H. Hughes (National Cancer Institute- Frederick, MD, USA).
# (§4) RT proteins were labeled with Monolith NT protein labeling kit BLUE-NHS (NanoTemper Technologies) and eluted in microscale thermophoresis (MST) buffer (50 mm Tris-HCl, pH 7.0, 300 mM NaCl and 0.05% Tween-20).
# [3] = target: T3, mutant fRT (FIVm; R133S, K134I, A137E, G138T and R141I in FIV p51) (Feline immunodeficiency virus, UniProt P16088, A293E/G294T/K290I/R289S/R297I); experiment: as above
# T3 construct: The p66 subunit (residues 1–554) was cloned into pET22b; p51 subunit (residues 1–430) in pET28b (kan resistance, Novagen) with a thrombin-cleavable His-tag at the N-terminus; His-tag (thrombin-cleavable) (N, cleaved yes); made in house; host or cells: E. coli ArcticExpress
# Excerpt: as §3, §4
# FIV RT (fRT) = target: T4, FIV RT (fRT) (Feline immunodeficiency virus, UniProt P16088); experiment: Microscale thermophoresis (MST) NNRTI binding affinity to wild type FIV RT
# T4 construct: The p66 subunit (residues 1–554) was cloned into pET22b; p51 subunit (residues 1–430) in pET28b (kan resistance, Novagen) with a thrombin-cleavable His-tag at the N-terminus; His-tag (thrombin-cleavable) (N, cleaved yes); made in house; host or cells: E. coli ArcticExpress
# Procedure: as §4
# HIV-1 RT [4] = target: T1, HIV-1 RT; type: biochemical
# Procedure: as §1
# as §2, with “Reactions” for “Reaction mixtures contained 100 mM Tris-HCl pH 7.5, 75 mM KCl, 0.5 mM dNTP mixture, 60 mM MgCl2, 5 mM DTT and 0.15 μM RT, 0.5 μM DNA substrate. Reactions”
Structure (SMILES),Kd (HIV-1 RT [1]) [nM],effect on DNA polymerization activity of the mutated fRT (in words) (mutated fRT (FIVm)),binding affinity to mutated fRT as compared to HIV-1 RT [2],Kd [3] [nM],binding to fRT (in words) (FIV RT (fRT)),inhibition of HIV-1 RT DNA polymerization activity (in words) (HIV-1 RT [4]),"Kd (HIV-1 RT [1]; MST, mean ±SD, read-out: Kd, binding to HIV-1 RT) [nM]",binding affinity to mutated fRT as compared to fRT ([2]; FIVm versus wild type fRT),Kd (FIV RT (fRT); mean ±SD) [nM],"inhibition of HIV-1 RT DNA polymerization activity (in words) (HIV-1 RT [4]; 0.15 μM RT, 30 minutes at 37°C)"
"CC(C)Nc1cccnc1N1CCN(C(=O)c2cc3cc(NS(C)(=O)=O)ccc3[nH]2)CC1 [DLV, Delavirdine]",617 ± 100,"none of the three inhibitors EFZ, DLV or RPV reduced the activity",twice the affinity,227 ± 71,fail to bind,potently inhibiting,,,,
"O=C1Nc2ccc(Cl)cc2[C@@](C#CC2CC2)(C(F)(F)F)O1 [EFZ, Efavirenz]",,"none of the three inhibitors EFZ, DLV or RPV reduced the activity",comparable affinities,,fail to bind,,,,,
"Cc1cc(/C=C/C#N)cc(C)c1Nc1ccnc(Nc2ccc(C#N)cc2)n1 [RPV, Rilpivirine]",,"none of the three inhibitors EFZ, DLV or RPV reduced the activity",comparable affinities,368 ± 60,able to bind to fRT with comparable affinity to HIV-1 RT,,539 ± 25,twice the affinity,796 ± 76,potently inhibiting
